Source: patent publication US12479895B2, “C-terminal CDNF and MANF fragments, pharmaceutical compositions comprising same and uses thereof” (MyNeuroCure Oy, priority 2018, dated 2025)

Key:
dopamine neurons = test: Survival of TH-positive dopamine neurons in dissociated midbrain floor cultures; assay type: cell-based, mouse; settings: for Fold change of survived neurons compared to neurons grown without growth factors: data of Table 3 divided by values of no factor
Description: To study the dopamine neurons (Yu et al., 2008; Yu and Arumae, 2008), the midbrain floors were dissected from the ventral mesencephali of 13.5-d-old NMRI strain mouse embryos. Tissues were incubated with 0.5% trypsin (ICN Biomedical), then mechanically dissociated using a large fire-polished Pasteur pipette. The neurons were grown on the poly-L-ornithine-coated (Sigma) 96-well culture plates in DMEM/F12 medium (Invitrogen) containing N2 supplement (Invitrogen) in the presence or absence of GDNF (100 ng/ml) or with CDNF, MANF, C-CDNF and C-MANF polypeptides at different concentrations for five days. Same amount of the neurons were plated to each well at the beginning of the experiments. The cultures without added neurotrophic factors served as the negative control. As the midbrain cultures contain several neuronal types, the cultures were fixed and immunostained with the antibodies to tyrosine hydroxylase (TH) (Millipore), a specific marker for the dopaminergic neurons. Images of each well were scanned by CellInsight™ and immunopositive neurons were counted by CellProfiler and CellProfiler analyst software. Data are expressed as a percentage of GDNF-maintained TH-positive neurons. All experiments were repeated at least three times on the independent cultures. The results were expressed as the mean the SEM and were tested for the significance by either one-way ANOVA and Tukey's post hoc test or by two-tailed Student's t-test. The null hypothesis was rejected at P≤0.05.

ER stressed SCG neurons = test: Survival of tunicamycin-treated (ER stressed) SCG sympathetic neurons after microinjection; assay type: cell-based, mice; settings: for survived neurons as % compared to neurons grown in the presence of NGF: microinjected into cytoplasm, CDNF (400); for Fold change of survived neurons compared to neurons injected with PBS: data of Table 1 divided by values of PBS
Description: Non-neuronal cells were removed by extensive preplating. Almost pure neurons were cultured in polyornithine/laminin (Sigma)-coated 35-mm plastic dishes in the small-size standard microislands in the Neurobasal medium and B27 supplement (Invitrogen/Gibco) in the presence of 30 ng/ml mouse nerve growth factor (NGF) (Promega) for 5-6 days. NGF was deprived by extensive washing and addition of the function-blocking anti-NGF antibodies (Roche). The neurons were pressure-microinjected with special neuronal microinjection equipment (Hellman et al., 2011; Hamner et al., 2001; Lindholm et al., 2002; Sun et al., 2001; Yu et al., 2003)(Sun et al., 2001; Sun et al., 2003). For the survival assay, all neurons on the microislands were counted in the beginning (initial number) and the end (three days) of the experiment and expressed as % of initial.
Microinjection of the sympathetic neurons was performed as described earlier (Yu, L. Y., Jokitalo, E., Sun, Y. F., Mehlen, P., Lindholm, D., Saarma, M., and Arumae, U. (2003) J Cell Biol. 163, 987-997). Plasmids for CDNF have been described earlier. Briefly, newborn mouse SCG neurons were grown with NGF (Promega) for 5-6 days then the nuclei were microinjected with the expression plasmids for full-length (FL)-CDNF and C-CDNF together with a reporter plasmid for enhanced green fluorescent protein (EGFP), using vector concentration of 10 ng/ul in each experiment. […] For protein microinjection, recombinant full length (FL)-CDNF, C-CDNF proteins in PBS at 200 ng/ul were microinjected directly into the cytoplasm together with fluorescent reporter Dextran Texas Red (MW 70000 Da) (Invitrogen, Molecular Probes) that facilitates identification of the successfully injected neurons. Next day tunicamycin (2 μM) was added, and after 3 days the living fluorescent neurons were counted. Living fluorescent (EGFP-expressing or Dextran Texas Red-containing) neurons were “blindly” counted three days later and expressed as percent of initial living fluorescent neurons counted 2-3 hours after microinjection. The experiments with plasmids were repeated on independent cultures 5 times for plasmid experiment, whereas four independent protein injection experiments were performed. On average, 50-80 neurons were successfully injected per experimental group. The results were expressed as the mean±the SEM. Data of each experimental group was compared with control plasmid PCR3.1 (vector) or PBS (in the protein injection experiments) by one-way ANOVA and post hoc Dunnett's t test. The null hypothesis was rejected at p<0.05.

Sequence: VDLRKMRVAELKQILHSWGEECRACAEKTDYVNLIQELAPKYAATHPKTEL (listed as Homo sapiens) [pep5]
- survived neurons as % compared to neurons grown in the presence of GDNF (dopamine neurons; Table 3A (FIG. 15), AVG, 1 ng/ml, 5 days): 64.92 % GDNF
- survived neurons as % compared to neurons grown in the presence of GDNF (dopamine neurons; Table 3A (FIG. 15), AVG, 10 ng/ml, 5 days): 76.19 % GDNF
- survived neurons as % compared to neurons grown in the presence of GDNF (dopamine neurons; Table 3A (FIG. 15), AVG, 100 ng/ml, 5 days): 73.84 % GDNF
- survived neurons as % compared to neurons grown in the presence of GDNF (dopamine neurons; Table 3A (FIG. 15), AVG, 1000 ng/ml, 5 days): 65.13 % GDNF
- survived neurons as % compared to neurons grown in the presence of GDNF (dopamine neurons; Table 3A (FIG. 15), exp1, 1 ng/ml, 5 days): 65.24 % GDNF
- survived neurons as % compared to neurons grown in the presence of GDNF (dopamine neurons; Table 3A (FIG. 15), exp1, 10 ng/ml, 5 days): 61.71 % GDNF
- survived neurons as % compared to neurons grown in the presence of GDNF (dopamine neurons; Table 3A (FIG. 15), exp1, 100 ng/ml, 5 days): 59.82 % GDNF
- survived neurons as % compared to neurons grown in the presence of GDNF (dopamine neurons; Table 3A (FIG. 15), exp1, 1000 ng/ml, 5 days): 59.11 % GDNF
- survived neurons as % compared to neurons grown in the presence of GDNF (dopamine neurons; Table 3A (FIG. 15), exp2, 1 ng/ml, 5 days): 59.23 % GDNF
- survived neurons as % compared to neurons grown in the presence of GDNF (dopamine neurons; Table 3A (FIG. 15), exp2, 10 ng/ml, 5 days): 82.61 % GDNF
- survived neurons as % compared to neurons grown in the presence of GDNF (dopamine neurons; Table 3A (FIG. 15), exp2, 100 ng/ml, 5 days): 75.53 % GDNF
- survived neurons as % compared to neurons grown in the presence of GDNF (dopamine neurons; Table 3A (FIG. 15), exp2, 1000 ng/ml, 5 days): 58.84 % GDNF
- survived neurons as % compared to neurons grown in the presence of GDNF (dopamine neurons; Table 3A (FIG. 15), exp3, 1 ng/ml, 5 days): 70.31 % GDNF
- survived neurons as % compared to neurons grown in the presence of GDNF (dopamine neurons; Table 3A (FIG. 15), exp3, 10 ng/ml, 5 days): 84.24 % GDNF
- survived neurons as % compared to neurons grown in the presence of GDNF (dopamine neurons; Table 3A (FIG. 15), exp3, 100 ng/ml, 5 days): 86.17 % GDNF
- survived neurons as % compared to neurons grown in the presence of GDNF (dopamine neurons; Table 3A (FIG. 15), exp3, 1000 ng/ml, 5 days): 77.44 % GDNF
- Fold change of survived neurons compared to neurons grown without growth factors (dopamine neurons; Table 4, AVG, 1 ng/ml): 1.06 fold
- Fold change of survived neurons compared to neurons grown without growth factors (dopamine neurons; Table 4, AVG, 10 ng/ml): 1.23 fold
- Fold change of survived neurons compared to neurons grown without growth factors (dopamine neurons; Table 4, AVG, 100 ng/ml): 1.19 fold
- Fold change of survived neurons compared to neurons grown without growth factors (dopamine neurons; Table 4, AVG, 1000 ng/ml): 1.05 fold
- Fold change of survived neurons compared to neurons grown without growth factors (dopamine neurons; Table 4, exp1, 1 ng/ml): 1.14 fold
- Fold change of survived neurons compared to neurons grown without growth factors (dopamine neurons; Table 4, exp1, 10 ng/ml): 1.08 fold
- Fold change of survived neurons compared to neurons grown without growth factors (dopamine neurons; Table 4, exp1, 100 ng/ml): 1.05 fold
- Fold change of survived neurons compared to neurons grown without growth factors (dopamine neurons; Table 4, exp1, 1000 ng/ml): 1.03 fold
- Fold change of survived neurons compared to neurons grown without growth factors (dopamine neurons; Table 4, exp2, 1 ng/ml): 0.94 fold
- Fold change of survived neurons compared to neurons grown without growth factors (dopamine neurons; Table 4, exp2, 10 ng/ml): 1.31 fold
- Fold change of survived neurons compared to neurons grown without growth factors (dopamine neurons; Table 4, exp2, 100 ng/ml): 1.20 fold
- Fold change of survived neurons compared to neurons grown without growth factors (dopamine neurons; Table 4, exp2, 1000 ng/ml): 0.93 fold
- Fold change of survived neurons compared to neurons grown without growth factors (dopamine neurons; Table 4, exp3, 1 ng/ml): 1.09 fold
- Fold change of survived neurons compared to neurons grown without growth factors (dopamine neurons; Table 4, exp3, 10 ng/ml): 1.30 fold
- Fold change of survived neurons compared to neurons grown without growth factors (dopamine neurons; Table 4, exp3, 100 ng/ml): 1.33 fold
- Fold change of survived neurons compared to neurons grown without growth factors (dopamine neurons; Table 4, exp3, 1000 ng/ml): 1.20 fold
- survived neurons as % compared to neurons grown in the presence of NGF (ER stressed SCG neurons; Table 1A (FIG. 14), AVG of exp1-2, tunicamycin 2 μM): 81.78 % NGF
- survived neurons as % compared to neurons grown in the presence of NGF (ER stressed SCG neurons; Table 1A (FIG. 14), exp1, tunicamycin 2 μM, counted after 3 days): 86.36 % NGF
- survived neurons as % compared to neurons grown in the presence of NGF (ER stressed SCG neurons; Table 1A (FIG. 14), exp2, tunicamycin 2 μM, counted after 3 days): 77.19 % NGF
- Fold change of survived neurons compared to neurons injected with PBS (ER stressed SCG neurons; Table 2, AVG): 2.23 Fold to PBS
- Fold change of survived neurons compared to neurons injected with PBS (ER stressed SCG neurons; Table 2, exp1): 2.52 Fold to PBS
- Fold change of survived neurons compared to neurons injected with PBS (ER stressed SCG neurons; Table 2, exp2): 1.94 Fold to PBS

Sequence: TLDLASVDLRKMRVAELKQILHSWGEECRACAEKTDYVNLIQEPAPKYA (Mutated C-CDNF peptide) [pep13]
- survived neurons as % compared to neurons grown in the presence of GDNF (dopamine neurons; Table 3B (FIG. 17), AVG, 1 ng/ml, 5 days): 71.07 % GDNF
- survived neurons as % compared to neurons grown in the presence of GDNF (dopamine neurons; Table 3B (FIG. 17), AVG, 10 ng/ml, 5 days): 86.81 % GDNF
- survived neurons as % compared to neurons grown in the presence of GDNF (dopamine neurons; Table 3B (FIG. 17), AVG, 100 ng/ml, 5 days): 88.07 % GDNF
- survived neurons as % compared to neurons grown in the presence of GDNF (dopamine neurons; Table 3B (FIG. 17), AVG, 1000 ng/ml, 5 days): 85.36 % GDNF
- protection of dopaminergic neurons in culture (result in words) (dopamine neurons; added to the culture medium, 5 days, TH-positive neurons counted): best protective effect
- survived neurons as % compared to neurons grown in the presence of NGF (ER stressed SCG neurons; Table 1B (FIG. 16), exp1, tunicamycin 2 μM, counted after 3 days): 77.41 % NGF
- survived neurons as % compared to neurons grown in the presence of NGF (ER stressed SCG neurons; Table 1B (FIG. 16), exp2, tunicamycin 2 μM, counted after 3 days): 72.46 % NGF
- survived neurons as % compared to neurons grown in the presence of NGF (ER stressed SCG neurons; Table 1B (FIG. 16), exp3, tunicamycin 2 μM, counted after 3 days): 80.39 % NGF
- rescue of ER stressed SCG neurons (result in words) (ER stressed SCG neurons; protein or peptide microinjected into the cytoplasm, tunicamycin 2 μM, living fluorescent neurons counted after 3 days): rescue
